From ChEMBL document CHEMBL1201862, “PubChem BioAssay data set” (2004)
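Compound exposure: 48 hours, 5 concentrations, 96-well plates. GI50 = concentration required for 50% inhibition of growth.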 Activity calls are given as the source filed them. No stated cut-off is given here; in the data, active = GI50 up to about 1.1 µM and inactive = higher.

Legend:
Test in all cases: growth of human tumour cells (NCI), 48 h
[1] = tested on: COLO 205
[2] = tested on: SK-OV-3
[3] = tested on: OVCAR-5
[4] = tested on: KM12
[5] = tested on: SN12C
[6] = tested on: M14
[7] = tested on: EKVX
[8] = tested on: OVCAR-4
[9] = tested on: SK-MEL-28
[10] = tested on: HT-29
[11] = tested on: 786-0
[12] = tested on: SF-268
[13] = tested on: NCI-H522
[14] = tested on: UACC-62
[15] = tested on: K562
[16] = tested on: LOX IMVI
[17] = tested on: MOLT-4
[18] = tested on: HCC 2998

Measured: GI50

O=C(O)CN(c1ccc(Cl)cc1)S(=O)(=O)c1ccccc1
inactive: [1] 51.2 µM | [2] > 100 µM | [3] > 100 µM | [4] > 100 µM | [5] > 100 µM | [6] > 100 µM | [7] > 100 µM | [8] > 100 µM | [9] > 100 µM | [10] > 100 µM | [11] > 100 µM | [12] > 100 µM | [13] > 100 µM | [14] > 100 µM | [15] > 100 µM | [16] > 100 µM | [17] > 100 µM

CN1CC(=O)N(C)c2ncn(Cc3ccccc3)c2C1=O
inactive: [1] > 100 µM | [2] > 100 µM | [4] > 100 µM | [5] > 100 µM | [18] > 100 µM | [6] > 100 µM | [7] > 100 µM | [8] > 100 µM | [9] > 100 µM | [10] > 100 µM | [11] > 100 µM | [12] 12.2 µM | [14] > 100 µM | [15] > 100 µM | [16] > 100 µM | [17] > 100 µM

COC(=O)C1=C(c2cc(OC)c(OC)c(OC)c2)OC(c2cc(OC)c(OC)c(OC)c2)C1COC(C)=O (configuration not stated)
inactive: [1] 18.2 µM | [2] 44.8 µM | [3] 18.1 µM | [4] 51.8 µM | [5] 85.1 µM | [18] 50.9 µM | [6] 41 µM | [7] > 100 µM | [8] 29.6 µM | [9] > 100 µM | [10] 35.5 µM | [11] 26.1 µM | [12] > 100 µM | [13] 16.7 µM | [14] 30.5 µM | [15] 24 µM | [16] 20.8 µM | [17] 20.8 µM

O=C(/C=C/c1ccccc1)/C=C/c1ccccc1O
inactive: [1] 17.3 µM | [2] 19.1 µM | [3] 29.3 µM | [4] 17.8 µM | [5] 16.2 µM | [18] 12.5 µM | [6] 21 µM | [7] 18.8 µM | [9] 34.6 µM | [10] 24.4 µM | [11] 16.7 µM | [12] 32.9 µM | [13] 15.5 µM | [14] 19 µM | [15] 16.4 µM | [16] 18.2 µM | [17] 19.8 µM

CCN(CC)c1c(C(=O)/C=C/c2ccc(OC)cc2)c(-c2ccccc2)nn(C)c1=O
inactive: [1] 3.87 µM | [2] 36 µM | [3] 5.46 µM | [4] 12.7 µM | [5] 21 µM | [7] 8 µM | [8] 8.75 µM | [9] 16.7 µM | [10] 9.51 µM | [11] 14.1 µM | [12] 6.52 µM | [14] 10.5 µM | [15] 9.06 µM | [16] 14.9 µM | [17] 2.67 µM

CO/C=C/c1cc2c(cc1C(OC)OC)OCO2
inactive: [2] 26.1 µM | [3] 52.8 µM | [4] 52.6 µM | [5] 79.3 µM | [18] > 100 µM | [6] 31.1 µM | [7] 69.7 µM | [8] > 100 µM | [9] > 100 µM | [10] 39.4 µM | [11] 42.6 µM | [12] 52.1 µM | [13] > 100 µM | [14] 22.6 µM | [15] 29.9 µM | [17] 33.7 µM

Oc1ncnc2c1CCCN2
inactive: [1] > 100 µM | [2] > 100 µM | [3] > 100 µM | [4] > 100 µM | [5] > 100 µM | [18] > 100 µM | [6] > 100 µM | [7] > 100 µM | [9] > 100 µM | [10] > 100 µM | [11] > 100 µM | [12] > 100 µM | [13] > 100 µM | [14] > 100 µM | [15] > 100 µM | [16] > 100 µM | [17] > 100 µM

COC(=O)C(=O)C(C(=O)C1=NS(=O)(=O)c2cc(S(N)(=O)=O)c(Cl)cc2N1)c1nc2ccc(C(=O)c3ccccc3)cc2nc1O (configuration not stated)
inactive: [1] > 100 µM | [3] 58.7 µM | [4] 67.6 µM | [5] > 100 µM | [18] > 100 µM | [6] > 100 µM | [7] > 100 µM | [8] 81.5 µM | [9] > 100 µM | [10] > 100 µM | [11] > 100 µM | [12] > 100 µM | [13] 37.2 µM | [14] 63.2 µM | [15] 40 µM | [17] 48.6 µM

CC(C)(Oc1ccc2c(=O)cc(-c3ccccc3)oc2c1)C(=O)Nc1c(Cl)cccc1Cl
inactive: [2] > 100 µM | [3] > 100 µM | [4] 79.1 µM | [6] > 100 µM | [7] > 100 µM | [9] > 100 µM | [10] > 100 µM | [11] 97.1 µM | [12] > 100 µM | [13] 38 µM | [14] > 100 µM | [15] 12.1 µM | [16] > 100 µM | [17] 76.4 µM

Cc1ccc(Nc2ccc(Nc3ccc(C)cc3)c3c2C(=O)c2c(O)ccc(O)c2C3=O)cc1
inactive: [1] > 100 µM | [2] > 100 µM | [3] > 100 µM | [4] > 100 µM | [5] > 100 µM | [18] > 100 µM | [6] > 100 µM | [7] > 100 µM | [8] > 100 µM | [9] 91.4 µM | [11] > 100 µM | [12] > 100 µM | [13] 47.8 µM | [14] > 100 µM | [15] > 100 µM | [16] > 100 µM | [17] > 100 µM

CC1=C(C(=O)Nc2cccc(C(F)(F)F)c2)C(c2ccccc2F)C(C(=O)Nc2cccc(C(F)(F)F)c2)=C(C)N1
inactive: [1] 4.82 µM | [2] 10.4 µM | [3] 10.5 µM | [4] 3.74 µM | [5] 7.96 µM | [18] 3.31 µM | [6] 4.59 µM | [7] 3.94 µM | [8] 3.08 µM | [9] 11 µM | [10] 3.66 µM | [11] 6.49 µM | [12] 6.52 µM | [13] 4.79 µM | [15] 3.96 µM | [16] 5.37 µM | [17] 2.6 µM

CC1=C(C(=O)Nc2ccc([N+](=O)[O-])cc2)C(c2ccc(N(C)C)cc2)C(C(=O)Nc2ccc([N+](=O)[O-])cc2)=C(C)N1
inactive: [1] 15.4 µM | [2] 23.4 µM | [3] 23.2 µM | [4] 11.6 µM | [5] > 10 µM | [18] 12 µM | [6] 16.9 µM | [7] 25.4 µM | [8] 21.1 µM | [9] 13.5 µM | [10] 23.4 µM | [11] 23.3 µM | [12] 23.8 µM | [13] 11 µM | [15] 6.68 µM | [16] 9.04 µM | [17] 9.14 µM
